The text below walks through data of ChEMBL document CHEMBL1201862, “PubChem BioAssay data set” (2004).

Test systems include 786-0; SNB-75; ACHN; TK-10; OVCAR-4; NCI-H23; EKVX; KM12; SK-OV-3; HCC 2998; HT-29; HOP-62; SK-MEL-5; HCT-15; CAKI-1; HOP-92; IGROV-1.
What all share (experiment): DTP human tumour cell line panel, 48 h

Structures are written as SMILES.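 Protocol summary: plate cells (96-well), add compound at 5 concentrations, incubate 48 h, interpolate endpoints linearly. GI50: concentration for 50% inhibition of growth.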 Activity calls are given as the source filed them. Rule as the data show it: active = GI50 up to about 1.1 µM and inactive = higher.

What is called GI50 is the concentration at which growth is held to half of that of the control. As for `CSc1ccc2c(cc1=O)[C@@H](NC(=O)c1cc(O)c(O)c(O)c1)CCc1cc(O)c(O)c(O)c1-2`, the GI50 is 34.6 µM (inactive) in the assay with 786-0; 23.4 µM (inactive) in the assay on SNB-75; 34.1 µM (inactive) in the assay with ACHN; 41.6 µM (inactive) in the assay with TK-10; 8.93 µM (inactive) with OVCAR-4; 20 µM (inactive) in the assay with NCI-H23. Moreover, the GI50 in the assay with EKVX was 23.2 µM (inactive); with KM12, 20.9 µM (inactive); in the assay on SK-OV-3, > 100 µM (inactive); in the assay on HCC 2998 it was > 100 µM (inactive); in the assay with HT-29 it was 24 µM (inactive); in the assay with HOP-62, 49.5 µM (inactive). The values for the GI50 in the assay on SK-MEL-5 and in the assay with HCT-15 were 19.8 µM (inactive) and 20.2 µM, respectively.

Take `Cc1cc(C)c2c(c1C)CN1CN2Cc2c(C)c(C)cc(C)c21`: the GI50 in the assay on CAKI-1 is > 100 µM (inactive); in the assay with 786-0 it was > 100 µM (inactive); in the assay on SNB-75, 21 µM (inactive); in the assay with ACHN, > 100 µM (inactive); in the assay on TK-10, > 100 µM (inactive); in the assay on OVCAR-4, 7.98 µM (inactive). Besides, the GI50 with NCI-H23 was 6.84 µM (inactive); with EKVX, > 100 µM (inactive); with KM12, > 100 µM (inactive); with SK-OV-3, > 100 µM (inactive); in the assay on HT-29 it was 44.4 µM (inactive); in the assay on HOP-92, 67.1 µM (inactive). Further, the GI50 with HOP-62 is > 100 µM (inactive); with HCT-15, 20.4 µM; in the assay with IGROV-1 it was > 100 µM (inactive).

Turning to `CC#CC1/C(=C\C(=O)OC)CCCC1O` (configuration not stated), the GI50 in the assay on CAKI-1, in the assay with 786-0, with SNB-75, in the assay on ACHN, in the assay on TK-10 and with OVCAR-4 was > 100 µM (inactive) in each case. The GI50 in the assay with NCI-H23, in the assay with EKVX, in the assay on KM12, in the assay with SK-OV-3, with HCC 2998 and in the assay with HT-29 was > 100 µM (inactive) in each case. In addition, the GI50 in the assay on HOP-62 is > 100 µM (inactive); in the assay on SK-MEL-5 it was > 100 µM (inactive); with HCT-15, more than 100 µM.

As to `CC(NS(=O)(=O)c1ccc(Cl)cc1)C(=O)O` (configuration not stated), the GI50 in the assay on CAKI-1, in the assay on 786-0, in the assay on SNB-75, in the assay with ACHN, with TK-10 and in the assay on OVCAR-4 was > 100 µM (inactive) throughout. Besides, the GI50 in the assay with NCI-H23, with EKVX, with KM12, in the assay on SK-OV-3, in the assay on HT-29 and in the assay with HOP-92 was > 100 µM (inactive) throughout. For the same molecule, the figures for the GI50 in the assay on SK-MEL-5, in the assay with HCT-15 and in the assay with IGROV-1 were > 100 µM (inactive), more than 100 µM and > 100 µM (inactive), respectively.

Regarding `NC(=O)COc1ccc(Br)cc1Br`, the GI50 in the assay on CAKI-1 was > 100 µM (inactive); in the assay on 786-0, > 100 µM (inactive); with SNB-75, 52.1 µM (inactive); in the assay on ACHN, > 100 µM (inactive); in the assay with NCI-H23, > 100 µM (inactive); in the assay on EKVX, 29.2 µM (inactive). Moreover, the GI50 in the assay on KM12 is 85.3 µM (inactive); in the assay on SK-OV-3, > 100 µM (inactive); with HT-29, > 100 µM (inactive); in the assay with HOP-92 it was > 100 µM (inactive); in the assay with HOP-62 it was > 100 µM (inactive); in the assay with SK-MEL-5 it was > 100 µM (inactive). Moreover, the GI50 in the assay on HCT-15 was more than 100 µM; in the assay with IGROV-1 it was > 100 µM (inactive).

Turning to `N#CC1CCCCC1NC1(C#N)CCCCC1` (configuration not stated), the GI50 in the assay with CAKI-1, with 786-0, with SNB-75, in the assay with TK-10, in the assay with NCI-H23 and in the assay on EKVX was > 100 µM (inactive) each time. Also, the GI50 in the assay on KM12, in the assay with SK-OV-3, with HCC 2998, with HT-29, in the assay on HOP-62 and in the assay on SK-MEL-5 was > 100 µM (inactive) in each case. Besides, the GI50 in the assay with HCT-15 was more than 100 µM; with IGROV-1, > 100 µM (inactive).

As for `COC(=O)C(C(=O)C(=O)Nc1ccccc1C)c1nc2ccc([N+](=O)[O-])cc2nc1O` (configuration not stated), the GI50 in the assay on CAKI-1, in the assay with 786-0, in the assay with SNB-75, in the assay on ACHN, in the assay on TK-10 and in the assay with OVCAR-4 was > 100 µM (inactive) throughout. In addition, the GI50 in the assay on NCI-H23, with EKVX, in the assay on KM12, with SK-OV-3, in the assay on HCC 2998 and in the assay on HT-29 was > 100 µM (inactive) each time. In addition, the GI50 in the assay with HOP-62 was > 100 µM (inactive); with SK-MEL-5 it was > 100 µM (inactive); in the assay on HCT-15, more than 100 µM; with IGROV-1 it was > 100 µM (inactive).

As to `COc1ccccc1NC(=O)C(=O)C1C(=O)Nc2ccccc2[S+]1[O-]` (configuration not stated), the GI50 in the assay on CAKI-1, with 786-0, in the assay with SNB-75, in the assay on ACHN, with TK-10 and with OVCAR-4 was > 100 µM (inactive) throughout. Besides, the GI50 in the assay with NCI-H23, with EKVX, with KM12, in the assay with SK-OV-3, in the assay with HCC 2998 and in the assay with HT-29 was > 100 µM (inactive) in each case. In addition, the GI50 was > 100 µM (inactive) with HOP-62, > 100 µM (inactive) in the assay on SK-MEL-5, more than 100 µM in the assay on HCT-15 and > 100 µM (inactive) in the assay with IGROV-1.

As to `C/C=C1\CN2CCc3c([nH]c4ccccc34)C2CC1C(=O)OC` (configuration not stated), the GI50 in the assay with CAKI-1, in the assay with 786-0, with ACHN, in the assay on TK-10, in the assay on NCI-H23 and in the assay with EKVX was > 322 µM (inactive) throughout. Further, the GI50 in the assay with KM12 was > 322 µM (inactive); in the assay on SK-OV-3, > 322 µM (inactive); with HCC 2998, > 322 µM (inactive); in the assay with HT-29, > 322 µM (inactive); in the assay on HOP-92, 169 µM (inactive); in the assay with HOP-62, > 322 µM (inactive). Moreover, the GI50 in the assay with SK-MEL-5 is > 322 µM (inactive); with HCT-15, more than 322 µM; with IGROV-1 it was > 322 µM (inactive).

As to `CCCCCCc1cc2c(C)c(C)c(=O)oc2cc1OCCCOc1cc2oc(=O)c(C)c(C)c2cc1CCCCCC`, the GI50 in the assay with CAKI-1, in the assay on 786-0, with TK-10, in the assay on NCI-H23, with EKVX and with KM12 was > 100 µM (inactive) each time. The GI50 in the assay on SK-OV-3 was > 100 µM (inactive); in the assay on HT-29 it was > 100 µM (inactive); in the assay with HOP-92, > 100 µM (inactive); in the assay with HOP-62, > 100 µM (inactive); in the assay with SK-MEL-5, > 100 µM (inactive); in the assay with HCT-15, more than 100 µM. Moreover, in the assay on IGROV-1, the GI50 was > 100 µM (inactive).
